US20260176320A1, “MODULATORS OF G-PROTEIN COUPLED RECEPTORS” (priority 2018, published 2026)
Where two headings read alike, the source gives them in different places. Square brackets hold non-standard residues; d marks the D form. Peptide text beside a SMILES is read from it. * marks the point of attachment. X1 = O=C(CSCC(=O)*)NCCN1C(=O)c2ccccc2C1=O; Aib = CC(C)(N)C(=O)O

Key:
GIP-R = biological target: T1, GIP-R (Homo sapiens, UniProt P48546); experiment: HitHunter cAMP assay (GIP-R); assay type: cell-based; conditions: cAMP; for Emax: read-out: (Emax) GIP-R
T1 sequence (P48546 22-466): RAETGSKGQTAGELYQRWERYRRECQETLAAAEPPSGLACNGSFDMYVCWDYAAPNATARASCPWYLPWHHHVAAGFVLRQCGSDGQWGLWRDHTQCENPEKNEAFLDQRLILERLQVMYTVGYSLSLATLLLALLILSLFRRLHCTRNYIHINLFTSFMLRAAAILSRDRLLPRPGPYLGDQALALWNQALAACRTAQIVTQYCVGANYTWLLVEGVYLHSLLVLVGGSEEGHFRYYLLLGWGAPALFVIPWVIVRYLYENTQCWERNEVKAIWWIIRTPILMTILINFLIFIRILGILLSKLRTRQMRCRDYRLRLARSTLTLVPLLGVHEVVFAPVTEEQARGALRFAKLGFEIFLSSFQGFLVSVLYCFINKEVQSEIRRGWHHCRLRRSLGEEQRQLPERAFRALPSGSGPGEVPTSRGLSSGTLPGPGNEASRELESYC
Procedure, shortened: (§1)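 Agonist stimulation lasts 30 min at room temperature on 10,000 cells per well, with phosphodiesterase blocked by 625 μM IBMX. Accumulated cAMP is quantified by competitive antibody luminescence after overnight development.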

GLP-1R = GLP-1R (Homo sapiens, UniProt P43220); experiment: HitHunter cAMP assay (GLP-1R); assay type: cell-based; conditions: cAMP; for Emax: read-out: (Emax) GLP-1R
Chain of GLP-1R (P43220 24-463): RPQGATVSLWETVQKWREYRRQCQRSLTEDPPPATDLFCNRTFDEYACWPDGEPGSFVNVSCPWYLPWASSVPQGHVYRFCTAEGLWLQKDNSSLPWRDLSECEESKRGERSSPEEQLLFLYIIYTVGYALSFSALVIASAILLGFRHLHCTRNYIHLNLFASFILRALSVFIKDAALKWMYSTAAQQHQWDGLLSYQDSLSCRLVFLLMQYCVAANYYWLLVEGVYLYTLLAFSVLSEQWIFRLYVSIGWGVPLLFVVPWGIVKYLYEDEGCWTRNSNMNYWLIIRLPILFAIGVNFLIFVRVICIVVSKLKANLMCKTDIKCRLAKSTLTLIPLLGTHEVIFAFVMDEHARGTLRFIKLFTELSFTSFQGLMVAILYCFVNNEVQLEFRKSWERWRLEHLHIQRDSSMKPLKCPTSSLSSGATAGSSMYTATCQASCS
Procedure, shortened: as §1

[1] = Table 3, read-out: EC50 GIP-R/nM
[2] = Table 3A, read-out: EC50 GIP-R/nM
[3] = Table 3, read-out: EC50 GLP-1R/nM
[4] = Table 3A, read-out: EC50 GLP-1R/nM

CC[C@H](C)[C@H](NC(=O)[C@H](CO)NC(=O)[C@H](Cc1ccc(O)cc1)NC(=O)[C@H](CC(=O)O)NC(=O)[C@H](CO)NC(=O)[C@@H](NC(=O)[C@H](Cc1ccccc1)NC(=O)[C@@H](NC(=O)CNC(=O)[C@H](CCC(=O)O)NC(=O)C1(C(=O)NCCN2C(=O)CSC2=O)Cc2ccccc2C1)[C@@H](C)O)[C@@H](C)O)C(=O)N[C@@H](Cc1ccc(O)cc1)C(=O)N[C@@H](CC(C)C)C(=O)N[C@@H](CC(=O)O)C(=O)N[C@@H](CCCCN)C(=O)N[C@@H](CCC(N)=O)C(=O)N[C@@H](C)C(=O)N[C@@H](C)C(=O)NC(C)(C)C(=O)N[C@@H](CCC(=O)O)C(=O)N[C@@H](Cc1ccccc1)C(=O)N[C@H](C(=O)N[C@@H](CC(N)=O)C(=O)N[C@@H](Cc1c[nH]c2ccccc12)C(=O)N[C@@H](CC(C)C)C(=O)N[C@@H](CC(C)C)C(=O)N[C@@H](C)C(=O)NCC(=O)NCC(=O)N1CCC[C@H]1C(=O)N[C@@H](CO)C(=O)N[C@@H](CO)C(=O)NCC(=O)N[C@@H](C)C(=O)N1CCC[C@H]1C(=O)N1CCC[C@H]1C(=O)N1CCC[C@H]1C(=O)N[C@@H](CO)C(=O)N[C@@H](CCCCN)C(N)=O)C(C)C [Compound 124]
EC50 (GIP-R; EC50 GIP-R/nM, Table 3): > 1000 nM | Emax at 1 µM (GIP-R; read-out: (Emax) GIP-R at 1 μM, Table 3, at 1 μM): 10% | EC50 (GIP-R; read-out: EC50 GIP-R/nM, Table 3A): > 1000 nM | EC50 (GLP-1R; EC50 GLP-1R/nM, Table 3): 10 to 100 nM | EC50 (GLP-1R; EC50 GLP-1R/nM, Table 3A): 10 to 100 nM | Emax (GLP-1R; Table 3): 73% | Emax (GLP-1R; Table 3A): 73%

CC[C@H](C)[C@H](NC(=O)[C@H](CO)NC(=O)[C@H](Cc1ccc(O)cc1)NC(=O)[C@H](CC(=O)O)NC(=O)[C@H](CO)NC(=O)[C@@H](NC(=O)[C@H](Cc1ccccc1)NC(=O)[C@@H](NC(=O)CNC(=O)[C@H](CCC(=O)O)NC(=O)CC(=O)NCCCN1C(=O)c2ccccc2C1=O)[C@@H](C)O)[C@@H](C)O)C(=O)N[C@@H](Cc1ccc(O)cc1)C(=O)N[C@@H](CC(C)C)C(=O)N[C@@H](CC(=O)O)C(=O)N[C@@H](CCCCN)C(=O)N[C@@H](CCC(N)=O)C(=O)N[C@@H](C)C(=O)N[C@@H](C)C(=O)NC(C)(C)C(=O)N[C@@H](CCC(=O)O)C(=O)N[C@@H](Cc1ccccc1)C(=O)N[C@H](C(=O)N[C@@H](CC(N)=O)C(=O)N[C@@H](Cc1c[nH]c2ccccc12)C(=O)N[C@@H](CC(C)C)C(=O)N[C@@H](CC(C)C)C(=O)N[C@@H](C)C(=O)NCC(=O)NCC(=O)N1CCC[C@H]1C(=O)N[C@@H](CO)C(=O)N[C@@H](CO)C(=O)NCC(=O)N[C@@H](C)C(=O)N1CCC[C@H]1C(=O)N1CCC[C@H]1C(=O)N1CCC[C@H]1C(=O)N[C@@H](CO)C(=O)N[C@@H](CCCCN)C(N)=O)C(C)C [Compound 125]
Emax (GIP-R; Table 3): 54 to 60% | EC50 (GIP-R; [1]): 1 to 10 nM | Emax (GIP-R; Table 3A): 54 to 60% | EC50 (GIP-R; [2]): 1 to 10 nM | Emax (GLP-1R; Table 3): 94 to 100% | EC50 (GLP-1R; [3]): 10 to 100 nM | Emax (GLP-1R; Table 3A): 94 to 100% | EC50 (GLP-1R; [4]): 10 to 100 nM

CC[C@H](C)[C@H](NC(=O)[C@H](CO)NC(=O)[C@H](Cc1ccc(O)cc1)NC(=O)[C@H](CC(=O)O)NC(=O)[C@H](CO)NC(=O)[C@@H](NC(=O)[C@H](Cc1ccccc1)NC(=O)[C@@H](NC(=O)CNC(=O)[C@H](CCC(=O)O)NC(=O)CC(=O)NCCN1C(=O)c2ccc(C)cc2C1=O)[C@@H](C)O)[C@@H](C)O)C(=O)N[C@@H](Cc1ccc(O)cc1)C(=O)N[C@@H](CC(C)C)C(=O)N[C@@H](CC(=O)O)C(=O)N[C@@H](CCCCN)C(=O)N[C@@H](CCC(N)=O)C(=O)N[C@@H](C)C(=O)N[C@@H](C)C(=O)NC(C)(C)C(=O)N[C@@H](CCC(=O)O)C(=O)N[C@@H](Cc1ccccc1)C(=O)N[C@H](C(=O)N[C@@H](CC(N)=O)C(=O)N[C@@H](Cc1c[nH]c2ccccc12)C(=O)N[C@@H](CC(C)C)C(=O)N[C@@H](CC(C)C)C(=O)N[C@@H](C)C(=O)NCC(=O)NCC(=O)N1CCC[C@H]1C(=O)N[C@@H](CO)C(=O)N[C@@H](CO)C(=O)NCC(=O)N[C@@H](C)C(=O)N1CCC[C@H]1C(=O)N1CCC[C@H]1C(=O)N1CCC[C@H]1C(=O)N[C@@H](CO)C(=O)N[C@@H](CCCCN)C(N)=O)C(C)C [Compound 126]
EC50 (GIP-R; EC50 GIP-R/nM, Table 3): 10 to 100 nM | EC50 (GIP-R; EC50 GIP-R/nM, Table 3A): 10 to 100 nM | Emax (GIP-R; Table 3): 42 to 51% | Emax (GIP-R; Table 3A): 42 to 51% | EC50 (GLP-1R; EC50 GLP-1R/nM, Table 3): 10 to 100 nM | EC50 (GLP-1R; EC50 GLP-1R/nM, Table 3A): 10 to 100 nM | Emax (GLP-1R; Table 3): 84% | Emax (GLP-1R; Table 3A): 84%

CC[C@H](C)[C@H](NC(=O)[C@H](CO)NC(=O)[C@H](Cc1ccc(O)cc1)NC(=O)[C@H](CC(=O)O)NC(=O)[C@H](CO)NC(=O)[C@@H](NC(=O)[C@H](Cc1ccccc1)NC(=O)[C@@H](NC(=O)CNC(=O)[C@H](CCC(=O)O)NC(=O)C(C)(C)C(=O)NCCN1C(=O)c2ccc(C)cc2C1=O)[C@@H](C)O)[C@@H](C)O)C(=O)N[C@@H](Cc1ccc(O)cc1)C(=O)N[C@@H](CC(C)C)C(=O)N[C@@H](CC(=O)O)C(=O)N[C@@H](CCCCN)C(=O)N[C@@H](CCC(N)=O)C(=O)N[C@@H](C)C(=O)N[C@@H](C)C(=O)NC(C)(C)C(=O)N[C@@H](CCC(=O)O)C(=O)N[C@@H](Cc1ccccc1)C(=O)N[C@H](C(=O)N[C@@H](CC(N)=O)C(=O)N[C@@H](Cc1c[nH]c2ccccc12)C(=O)N[C@@H](CC(C)C)C(=O)N[C@@H](CC(C)C)C(=O)N[C@@H](C)C(=O)NCC(=O)NCC(=O)N1CCC[C@H]1C(=O)N[C@@H](CO)C(=O)N[C@@H](CO)C(=O)NCC(=O)N[C@@H](C)C(=O)N1CCC[C@H]1C(=O)N1CCC[C@H]1C(=O)N1CCC[C@H]1C(=O)N[C@@H](CO)C(=O)N[C@@H](CCCCN)C(N)=O)C(C)C [Compound 127]
EC50 (GIP-R; EC50 GIP-R/nM, Table 3): 1 to 10 nM | EC50 (GIP-R; EC50 GIP-R/nM, Table 3A): 1 to 10 nM | Emax (GIP-R; Table 3): 98 to 102% | Emax (GIP-R; Table 3A): 98 to 102% | EC50 (GLP-1R; EC50 GLP-1R/nM, Table 3): 1 to 10 nM | EC50 (GLP-1R; EC50 GLP-1R/nM, Table 3A): 1 to 10 nM | Emax (GLP-1R; Table 3): 95 to 107% | Emax (GLP-1R; Table 3A): 95 to 107%

CC[C@H](C)[C@H](NC(=O)[C@H](CO)NC(=O)[C@H](Cc1ccc(O)cc1)NC(=O)[C@H](CC(=O)O)NC(=O)[C@H](CO)NC(=O)[C@@H](NC(=O)[C@H](Cc1ccccc1)NC(=O)[C@@H](NC(=O)CNC(=O)[C@H](CCC(=O)O)NC(=O)C(C)(C)C(=O)O)[C@@H](C)O)[C@@H](C)O)C(=O)N[C@@H](Cc1ccc(O)cc1)C(=O)N[C@@H](CC(C)C)C(=O)N[C@@H](CC(=O)O)C(=O)N[C@@H](CCCCN)C(=O)N[C@@H](CCC(N)=O)C(=O)N[C@@H](C)C(=O)N[C@@H](C)C(=O)NC(C)(C)C(=O)N[C@@H](CCC(=O)O)C(=O)N[C@@H](Cc1ccccc1)C(=O)N[C@H](C(=O)N[C@@H](CC(N)=O)C(=O)N[C@@H](Cc1c[nH]c2ccccc12)C(=O)N[C@@H](CC(C)C)C(=O)N[C@@H](CC(C)C)C(=O)N[C@@H](C)C(=O)NCC(=O)NCC(=O)N1CCC[C@H]1C(=O)N[C@@H](CO)C(=O)N[C@@H](CO)C(=O)NCC(=O)N[C@@H](C)C(=O)N1CCC[C@H]1C(=O)N1CCC[C@H]1C(=O)N1CCC[C@H]1C(=O)N[C@@H](CO)C(=O)N[C@@H](CCCCN)C(N)=O)C(C)C [Compound 131]
Emax (GIP-R; Table 3): 3.2% | EC50 (GIP-R; [1]): > 1000 nM | EC50 (GIP-R; [2]): > 1000 nM | Emax (GLP-1R; Table 3): 95% | EC50 (GLP-1R; [3]): 1 to 10 nM | Emax (GLP-1R; Table 3A): 95% | EC50 (GLP-1R; [4]): 1 to 10 nM

CC[C@H](C)[C@H](NC(=O)[C@H](CO)NC(=O)[C@H](Cc1ccc(O)cc1)NC(=O)[C@H](CC(=O)O)NC(=O)[C@H](CO)NC(=O)[C@@H](NC(=O)[C@H](Cc1ccccc1)NC(=O)[C@@H](NC(=O)CNC(=O)[C@H](CCC(=O)O)NC(=O)CSCC(=O)NCCN1C(=O)c2ccccc2C1=O)[C@@H](C)O)[C@@H](C)O)C(=O)N[C@@H](Cc1ccc(O)cc1)C(=O)N[C@@H](CC(C)C)C(=O)N[C@@H](CC(=O)O)C(=O)N[C@@H](CCCCN)C(=O)N[C@@H](CCC(N)=O)C(=O)N[C@@H](C)C(=O)N[C@@H](C)C(=O)NC(C)(C)C(=O)N[C@@H](CCC(=O)O)C(=O)N[C@@H](Cc1ccccc1)C(=O)N[C@H](C(=O)N[C@@H](CCC(=O)O)C(=O)N[C@@H](Cc1c[nH]c2ccccc12)C(=O)N[C@@H](CC(C)C)C(=O)N[C@@H](CC(C)C)C(=O)N[C@@H](C)C(=O)NCC(=O)NCC(=O)N1CCC[C@H]1C(=O)N[C@@H](CO)C(=O)N[C@@H](CO)C(=O)NCC(=O)N[C@@H](C)C(=O)N1CCC[C@H]1C(=O)N1CCC[C@H]1C(=O)N1CCC[C@H]1C(=O)N[C@@H](CO)C(=O)N[C@@H](CCCCN)C(N)=O)C(C)C [Compound 149] (X1-EGTFTSDYSIYLDKQAA[Aib]EFVEWLLAGGPSSGAPPPSK-NH2)
EC50 (GIP-R; EC50 GIP-R/nM, Table 3): < 0.1 nM | EC50 (GIP-R; EC50 GIP-R/nM, Table 3A): < 0.1 nM | Emax (GIP-R; Table 3): 113% | Emax (GIP-R; Table 3A): 113% | EC50 (GLP-1R; EC50 GLP-1R/nM, Table 3): 1 to 10 nM | EC50 (GLP-1R; EC50 GLP-1R/nM, Table 3A): 1 to 10 nM | Emax (GLP-1R; Table 3): 86 to 92% | Emax (GLP-1R; Table 3A): 86 to 92%
